The record followed here is patent US10093650B2, “Tetrazolone-substituted dihydropyridinone MGAT2 inhibitors” (BRISTOL-MYERS SQUIBB COMPANY, priority 2014, dated 2018).

The target in the experiment is human MGAT-2 (Homo sapiens (Human), UniProt Q3SYC2). The experiment can be described thus: MGAT LCMS Assay (human MGAT2). The experiment is classed as biochemical. Particulars: human MGAT-2 membranes expressed in Sf9 cells; 100 μM 2-oleoylglycerol, 15 μM oleoyl-coenzyme A; LC/MS readout; read-out: h-MGAT LCMS IC50. Here is the method:
The MGAT enzyme reactions were performed in Corning FALCON® 96-well polypropylene plates, in a total volume of 60 μL of 50 mM potassium phosphate buffer pH 7.4, containing a final concentration of 100 μM 2-oleoylglycerol, 15 μM oleoyl-coenzyme A and […] human or mouse MGAT-2 or […] rat recombinant MGAT-2 membranes expressed in Sf9 cells. Assay plates were run through a fully automated robotics system and shaken for 5 seconds every minute for a total 10 minutes. The reactions were then quenched with 120 μL of ice cold methanol containing 1 μg/mL 1,2-distearoyl-rac-glycerol as the internal standard. Plates were shaken for 2 minutes and spun down to remove protein precipitation. After the spin, samples were transferred to LC/MS compatible PCR plates. For LC/MS analysis, a ThermoFisher Surveyor pump, utilizing a Waters SYMMETRY® C8, 50×2.1 mm column, was used for the chromatography of enzyme products. The buffer system consists of 0.1% formic acid in water with a mobile phase consisting 0.1% formic acid in methanol. The shallow gradient is 90-100% mobile phase in 0.2 min with a total run time of 2.3 min. The first 0.5 minutes of each injection was diverted to waste to eliminate the presence of Phosphate buffer in the enzymatic reaction. The column was run at 0.6 mL/min and a temperature of 65° C. Mass spectrometry analysis of the samples was performed on a ThermoFisher Quantum Triple quad utilizing APCI (+) as the mode of ionization. Data was acquired in Single Ion Monitoring (SIM) mode analyzing Diolein=m/z 603.6 (PRODUCT) and 1,2-distearoyl-rac-glycerol (IS)=m/z 607.6. The ratio of Diolein to internal standard (Peak Area Ratio) is utilized to calculate IC50 values.
The exemplified Examples disclosed below were tested in the MGAT2 in vitro assays described above and were found having MGAT2 inhibitory activity. Table 1 below lists human MGAT2 IC50 values measured for the following examples.

A word on the IC50: it is the concentration needed to halve the response being measured.

Sequence of human MGAT-2 (Q3SYC2 whole entry): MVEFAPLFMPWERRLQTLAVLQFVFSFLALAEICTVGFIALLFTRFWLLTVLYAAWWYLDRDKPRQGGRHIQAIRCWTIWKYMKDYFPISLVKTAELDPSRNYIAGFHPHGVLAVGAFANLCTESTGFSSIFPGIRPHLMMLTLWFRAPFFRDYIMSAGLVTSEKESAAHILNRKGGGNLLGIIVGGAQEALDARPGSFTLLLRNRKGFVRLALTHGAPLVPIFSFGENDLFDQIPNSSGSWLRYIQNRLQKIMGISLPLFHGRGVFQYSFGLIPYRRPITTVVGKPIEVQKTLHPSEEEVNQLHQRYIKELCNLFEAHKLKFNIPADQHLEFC

With `Cc1ccc(C2=C(n3nn[nH]c3=O)C(=O)N[C@@](c3ccc(OCCCC(F)(F)F)cc3)(C(F)(F)F)C2)cc1` [Example 1, (S)-3-(5-Oxo-4,5-dihydro-1H-tetrazol-1-yl)-4-(p-tolyl)-6-(4-(4,4,4-trifluorobutoxy)phenyl)-6-(trifluoromethyl)-5,6-dihydropyridin-2(1H)-one], the concentration for half-maximal inhibition (IC50) is 27 nM.
The result for `Cc1ccc(C2=C(n3nn[nH]c3=O)C(=O)N[C@@](c3ccc(OCCCCCC(F)(F)F)cc3)(C(F)(F)F)C2)cc1` [Example 2] reads 5 nM; that for `COc1ccc(C2=C(n3nn[nH]c3=O)C(=O)N[C@@](c3ccc(OCCCC(F)(F)F)cc3)(C(F)(F)F)C2)cc1` [Example 3], 340 nM; that for `O=C1N[C@@](c2ccc(OCCCCCC(F)(F)F)cc2)(C(F)(F)F)CC(c2ccc(OC(F)F)cc2)=C1n1nn[nH]c1=O` [Example 4], 17 nM.
The result for `COc1ccc(C2=C(n3nn[nH]c3=O)C(=O)N[C@@](c3ccc(OCCCCCC(F)(F)F)cc3)(C(F)(F)F)C2)cc1` [Example 5] reads 71 nM; that for `CC(C)n1ccc(C2=C(n3nn[nH]c3=O)C(=O)N[C@@](c3ccc(OCCCC(F)(F)F)cc3F)(C(F)(F)F)C2)n1` [Example 6], 137 nM.
The result for `O=C1N[C@@](c2ccc(OCCCC(F)(F)F)cc2F)(C(F)(F)F)CC(c2ccn(C3CC3)n2)=C1n1nn[nH]c1=O` [Example 7] reads 173 nM; that for `O=C1N[C@@](c2ccc(OCCCC(F)(F)F)cc2F)(C(F)(F)F)CC(c2ccn(C3CCC3)n2)=C1n1nn[nH]c1=O` [Example 8], 30 nM; that for `CCn1ccc(C2=C(n3nn[nH]c3=O)C(=O)N[C@@](c3ccc(OCCCC(F)(F)F)cc3F)(C(F)(F)F)C2)n1` [Example 9], 108 nM.
Turning to `CC(C)n1ccc(C2=C(n3nn[nH]c3=O)C(=O)N[C@@](c3ccc(CCCCC(F)(F)F)cc3F)(C(F)(F)F)C2)n1` [Example 10], the 50% inhibitory concentration (IC50) turned out to be 36 nM.
The result for `O=C1N[C@@](c2ccc(CCCCC(F)(F)F)cc2F)(C(F)(F)F)CC(c2ccn(CC3CC3)n2)=C1n1nn[nH]c1=O` [Example 11] reads 9 nM; that for `CC(C)Cn1ccc(C2=C(n3nn[nH]c3=O)C(=O)N[C@@](c3ccc(CCCCC(F)(F)F)cc3F)(C(F)(F)F)C2)n1` [Example 12], 34 nM.
As for `CCn1ccc(C2=C(n3nn[nH]c3=O)C(=O)N[C@@](c3ccc(CCCCC(F)(F)F)cc3F)(C(F)(F)F)C2)n1` [Example 13], the IC50 was determined as 84 nM.
The figure for `O=C1N[C@@](c2ccc(OCCCC(F)(F)F)cc2F)(C(F)(F)F)CC(c2ccn(CC3CC3)n2)=C1n1nn[nH]c1=O` [Example 14] is 5 nM.
The figure for `CC(C)Cn1ccc(C2=C(n3nn[nH]c3=O)C(=O)N[C@@](c3ccc(OCCCC(F)(F)F)cc3F)(C(F)(F)F)C2)n1` [Example 15] is 145 nM.
In the case of `O=C1N[C@@](c2cnn(CCCCCCC(F)(F)F)c2)(C(F)(F)F)CC(c2ccc3c(c2)CCCC3)=C1n1nn[nH]c1=O` [Example 17], the concentration for half-maximal inhibition (IC50) is 5 nM.
For the compound `CC(=O)c1ccc(C2=C(n3nn[nH]c3=O)C(=O)N[C@@](c3ccc(OCCCC(F)(F)F)cc3)(C(F)(F)F)C2)s1` [Example 18], the IC50 stood at 8 nM.
With `CC(O)c1ccc(C2=C(n3nn[nH]c3=O)C(=O)N[C@@](c3ccc(OCCCC(F)(F)F)cc3)(C(F)(F)F)C2)s1` (stereo partly shown) [Example 19], the IC50 is 10 nM.
The figure for `O=C1N[C@@](c2ccc(CCCCC(F)(F)F)cc2)(C(F)(F)F)CC(c2ccn(CC3CC3)n2)=C1n1nn[nH]c1=O` [Example 20] is 3 nM.
With `O=C1N[C@@](c2ccc(OCCCC(F)(F)F)cc2F)(C(F)(F)F)CC(c2ccc(C(F)F)cc2)=C1n1nn[nH]c1=O` [Example 21], the IC50 worked out at 10 nM.
The result for `CCc1ccc(C2=C(n3nn[nH]c3=O)C(=O)N[C@@](c3ccc(OCCCC(F)(F)F)cc3)(C(F)(F)F)C2)s1` [Example 23] reads 60 nM; that for `CCc1ccc(C2=C(n3nn[nH]c3=O)C(=O)N[C@H](c3ccc(OCCCC(F)(F)F)cc3Cl)C2)s1` [Example 24], 36 nM.
